This is an account of results in US20100173968A1, “SUB-TYPE SELECTIVE AZABICYCLOALKANE DERIVATIVES” (TARGACEPT, INC., priority 2007, published 2010).

Counter-ions that a name gives are not always drawn. Like-named read-outs stand apart in the source and are kept apart here.

One experiment addresses α4β2 nAChR Subtype (Rattus norvegicus, UniProt P09483+P12390). The experiment is described as follows: Radioligand binding at α4β2 nAChR subtype, inhibition of [3H]nicotine binding, rat cerebral cortex membranes. The conditions noted are these: [3H]nicotine 5 nM. Here is the method:
The [^3H]nicotine (Specific Activity=81.5 Ci/mmol) was obtained from NEN Research Products. The binding of [^3H]nicotine was measured using a 3 h incubation at 4° C. […] Each filter was washed with ice-cold buffer (3×1 mL).
Each concentration was replicated in triplicate.

In a further experiment the target is Human α4β2 (Homo sapiens, UniProt P17787+P43681). The experiment is described as follows: Binding at human α4β2 (Ki); method not described.
The target in a further experiment is α7 nAChR Subtype (Rattus norvegicus, UniProt Q05941). The experiment is described as follows: Radioligand binding at α7 nAChR subtype, inhibition of [3H]MLA binding, rat hippocampus membranes (HTS at 5 μM, then Ki). The conditions noted are these: for inhibition at 5 µM: read-out: α7 HTS outcome (α7 Ki).
Where [1] appears, read: read-out: α7 Ki, [3H]MLA 5 nM, rat hippocampus.

Sequence of Human α4β2 (P43681 29-627 limits assumed): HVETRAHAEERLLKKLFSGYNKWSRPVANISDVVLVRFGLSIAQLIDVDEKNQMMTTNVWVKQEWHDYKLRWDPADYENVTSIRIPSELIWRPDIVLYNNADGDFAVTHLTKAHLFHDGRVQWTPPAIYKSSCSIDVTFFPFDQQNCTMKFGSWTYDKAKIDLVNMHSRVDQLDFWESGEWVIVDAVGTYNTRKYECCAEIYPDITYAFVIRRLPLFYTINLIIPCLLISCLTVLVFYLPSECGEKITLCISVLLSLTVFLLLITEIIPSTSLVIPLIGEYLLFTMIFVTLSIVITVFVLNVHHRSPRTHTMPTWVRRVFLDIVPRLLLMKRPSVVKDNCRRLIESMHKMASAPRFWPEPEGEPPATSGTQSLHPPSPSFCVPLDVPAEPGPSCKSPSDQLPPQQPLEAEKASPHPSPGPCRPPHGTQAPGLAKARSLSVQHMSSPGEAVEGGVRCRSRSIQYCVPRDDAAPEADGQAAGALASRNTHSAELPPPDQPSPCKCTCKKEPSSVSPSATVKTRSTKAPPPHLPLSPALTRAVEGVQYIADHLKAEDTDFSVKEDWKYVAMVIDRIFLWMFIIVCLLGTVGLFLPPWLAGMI
Sequence of Human α4β2 (P17787 26-502): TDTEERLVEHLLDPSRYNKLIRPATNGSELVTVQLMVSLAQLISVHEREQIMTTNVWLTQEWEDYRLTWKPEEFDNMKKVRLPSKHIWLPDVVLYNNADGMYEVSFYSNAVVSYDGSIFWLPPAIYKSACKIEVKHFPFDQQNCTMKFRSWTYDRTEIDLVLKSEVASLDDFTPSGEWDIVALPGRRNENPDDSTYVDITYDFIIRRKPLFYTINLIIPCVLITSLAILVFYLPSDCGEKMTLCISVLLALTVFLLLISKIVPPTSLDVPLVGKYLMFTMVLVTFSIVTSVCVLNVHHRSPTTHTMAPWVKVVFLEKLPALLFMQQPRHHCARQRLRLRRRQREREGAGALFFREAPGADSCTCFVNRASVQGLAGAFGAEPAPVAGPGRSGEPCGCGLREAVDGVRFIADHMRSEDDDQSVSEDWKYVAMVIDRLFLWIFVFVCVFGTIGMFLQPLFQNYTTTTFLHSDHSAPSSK
Sequence of α7 nAChR Subtype (Q05941 23-502): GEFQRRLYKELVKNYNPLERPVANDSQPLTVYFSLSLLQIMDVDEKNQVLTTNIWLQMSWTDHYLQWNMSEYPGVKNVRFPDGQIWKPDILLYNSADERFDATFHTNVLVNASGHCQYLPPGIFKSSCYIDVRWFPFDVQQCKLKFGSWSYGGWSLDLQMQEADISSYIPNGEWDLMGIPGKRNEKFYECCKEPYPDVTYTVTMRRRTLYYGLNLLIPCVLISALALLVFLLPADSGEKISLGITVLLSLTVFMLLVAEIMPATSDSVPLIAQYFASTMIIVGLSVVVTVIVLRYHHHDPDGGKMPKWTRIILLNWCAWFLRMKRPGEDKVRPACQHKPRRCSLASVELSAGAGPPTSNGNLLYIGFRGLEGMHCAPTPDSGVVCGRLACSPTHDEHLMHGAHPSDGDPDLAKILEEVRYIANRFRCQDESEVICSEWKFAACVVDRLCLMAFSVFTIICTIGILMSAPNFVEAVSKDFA
Sequence of α4β2 nAChR Subtype (P09483 31-630): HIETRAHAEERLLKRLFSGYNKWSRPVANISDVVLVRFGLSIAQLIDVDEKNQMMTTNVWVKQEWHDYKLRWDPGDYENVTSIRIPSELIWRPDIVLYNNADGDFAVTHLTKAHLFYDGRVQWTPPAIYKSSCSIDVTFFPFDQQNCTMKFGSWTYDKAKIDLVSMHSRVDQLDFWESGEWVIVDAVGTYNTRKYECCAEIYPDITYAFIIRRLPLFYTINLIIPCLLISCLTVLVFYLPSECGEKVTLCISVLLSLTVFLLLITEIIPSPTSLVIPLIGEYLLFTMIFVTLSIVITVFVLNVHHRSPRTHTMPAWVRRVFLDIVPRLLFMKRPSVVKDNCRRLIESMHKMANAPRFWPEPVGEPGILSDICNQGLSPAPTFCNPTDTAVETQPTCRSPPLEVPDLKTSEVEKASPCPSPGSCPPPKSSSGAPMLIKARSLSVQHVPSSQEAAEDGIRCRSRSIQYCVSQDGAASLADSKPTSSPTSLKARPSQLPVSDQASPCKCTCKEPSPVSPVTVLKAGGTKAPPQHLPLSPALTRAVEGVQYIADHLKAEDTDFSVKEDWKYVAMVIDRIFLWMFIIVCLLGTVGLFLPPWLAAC
Sequence of α4β2 nAChR Subtype (P12390 25-500): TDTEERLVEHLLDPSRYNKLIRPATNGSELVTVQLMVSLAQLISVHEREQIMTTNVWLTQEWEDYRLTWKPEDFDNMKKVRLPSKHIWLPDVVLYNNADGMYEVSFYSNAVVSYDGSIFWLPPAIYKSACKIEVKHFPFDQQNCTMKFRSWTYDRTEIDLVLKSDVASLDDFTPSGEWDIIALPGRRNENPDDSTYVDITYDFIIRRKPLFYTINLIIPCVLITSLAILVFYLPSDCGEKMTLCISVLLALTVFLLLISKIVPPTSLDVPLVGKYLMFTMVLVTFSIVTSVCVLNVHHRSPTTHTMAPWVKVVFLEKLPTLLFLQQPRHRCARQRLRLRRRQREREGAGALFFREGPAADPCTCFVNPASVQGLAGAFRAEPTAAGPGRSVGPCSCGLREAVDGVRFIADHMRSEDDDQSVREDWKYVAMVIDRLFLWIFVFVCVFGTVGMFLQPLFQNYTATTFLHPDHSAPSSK

Consider `CC(C)OCC(=O)C1C[C@H]2CNC[C@H]2C1.O=C(O)C(F)(F)F` (mixture of isomers) [1-(3-Azabicyclo[3.3.0]oct-7-yl)-2-isopropoxy-1-ethanone trifluoroacetate], for which the inhibitory constant (Ki) was found to be 427 nM on α4β2 nAChR Subtype (read-out: Rat α4β2 Ki) and 261 nM at Human α4β2.
Take `COCC(=O)C1C[C@H]2CNC[C@H]2C1.O=C(O)C(F)(F)F` (mixture of isomers) [1-(3-azabicyclo[3.3.0]oct-7-yl)-2-methoxy-1-ethanone trifluoroacetate]: the Ki on α4β2 nAChR Subtype (read-out: Rat α4β2 Ki) amounted to 32 nM; on Human α4β2, 31 nM.
In the case of `O=C(NCC(F)(F)F)C1C[C@H]2CNC[C@H]2C1.O=C(O)C(F)(F)F` (mixture of isomers) [N-(2,2,2-trifluoroethyl)-3-azabicyclo[3.3.0]octane-7-carboxamide trifluoroacetate], the Ki at Human α4β2 stood at 261 nM.
Consider `CC(=O)C1C[C@H]2CNC[C@H]2C1` (mixture of isomers) [1-(3-azabicyclo[3.3.0]oct-7-yl)-1-ethanone], for which the inhibition constant Ki at α4β2 nAChR Subtype (read-out: Rat α4β2 Ki) is 7.3 nM; on α7 nAChR Subtype (setting [1]), over 10000 nM; on Human α4β2 it was 10.7 nM.
On to `O=C(OC1CCC1)C1C[C@H]2CNC[C@H]2C1` (mixture of isomers) [cyclobutyl 3-azabicyclo[3.3.0]octane-7-carboxylate], for which the Ki was over 10000 nM at α7 nAChR Subtype and 80.6 nM on Human α4β2.
Regarding `C=CCC(C)OC(=O)C1C[C@H]2CNC[C@H]2C1` (mixture of isomers) [pent-4-en-2-yl 3-azabicyclo[3.3.0]octane-7-carboxylate], the Ki at α7 nAChR Subtype (setting [1]) was over 10000 nM; at Human α4β2 it was 44.8 nM.
For the compound `O=C(CF)C1CC2CNCC2C1` (single isomer, unassigned; isomer 1) [1-(3-azabicyclo[3.3.0]oct-7-yl)-2-fluoro-1-ethanone trifluoroacetate cis isomer, 1-(3-azabicyclo[3.3.0]oct-7-yl)-2-fluoro-1-ethanone trifluoroacetate], the Ki amounted to 6.8 nM on α4β2 nAChR Subtype (read-out: Rat α4β2 Ki) and 6.3 nM on Human α4β2.
In the same order, the values of `O=C(CF)C1CC2CNCC2C1` (single isomer, unassigned; isomer 1) [1-(3-azabicyclo[3.3.0]oct-7-yl)-2-fluoro-1-ethanone trifluoroacetate] are 154 nM and 176 nM.
On to `CC(C)C(=O)C1CC2CNCC(C2)C1` (stereo not shown) [1-(3-azabicyclo[3.3.1]non-7-yl)-2-methyl-1-propanone], for which the inhibitory constant (Ki) at α7 nAChR Subtype is over 10000 nM; at Human α4β2, 78.9 nM.
Consider `O=C(C1=CC2CNCC2C1)c1ccco1.O=C(O)C(F)(F)F` (stereo not shown) [2-furanyl(3-azabicyclo[3.3.0]oct-6-en-7-yl)methanone trifluoroacetate], for which the Ki amounted to 8 nM on α4β2 nAChR Subtype (Rat α4β2 Ki) and 2 nM at Human α4β2.
As for `O=C(c1ccco1)C1CC2CNCC(C2)C1` (stereo not shown) [2-furanyl(3-azabicyclo[3.3.1]non-7-yl)methanone], the Ki was over 10000 nM on α7 nAChR Subtype and 113 nM on Human α4β2.
Consider `CC1COCC(C)N1C(=O)C1=C[C@@H]2CNC[C@@H]2C1` (stereo partly shown) [(3-azabicyclo[3.3.0]oct-6-en-7-yl)(2,6-dimethylmorpholin-1-yl)methanone], for which, on α7 nAChR Subtype, the inhibition at 5 µM is under 50%. At Human α4β2, the Ki was determined as 1710 nM.
Taken in the same sequence, the figures for `NCCNC(=O)C1CC2CNCC(C2)C1` (stereo not shown) [N-(2-aminoethyl)-3-azabicyclo[3.3.1]nonane-7-carboxamide] were under 50% and 52.4 nM.
In the same order, the values of `O=C(Nc1cccnc1)C1CC2CNCC(C2)C1` (stereo not shown) [N-(pyridin-3-yl)-3-azabicyclo[3.3.1]nonane-7-carboxamide] are under 50% and 46.8 nM.
With `O=C(Nc1ccccc1)C1CC2CNCC(C2)C1` (stereo not shown) [N-phenyl-3-azabicyclo[3.3.1]nonane-7-carboxamide], on α7 nAChR Subtype, the inhibition at 5 µM is under 50%. The compound further displayed a Ki on Human α4β2 of 12.7 nM.
Taken in the same sequence, the figures for `CN(C)C(=O)[C@H]1C[C@H]2CNC[C@H]2C1` [cis-N,N-dimethyl-3-azabicyclo[3.3.0]octane-7-carboxamide] were under 50% and 1340 nM.
For `COC(=O)C1=CC2CNCC2C1.Cl` (stereo not shown) [methyl 3-azabicyclo[3.3.0]-oct-6-ene-7-carboxylate hydrochloride], the Ki is 5 nM on α4β2 nAChR Subtype (read-out: Rat α4β2 Ki) and 2 nM at Human α4β2.
